US5614192A, “T cell receptor peptides as therapeutics for immune-related disease” (Connective Therapeutics, Inc., priority 1993, dated 1997)

Assays:
[1] = system: T cell immunity; assay: T cell immunity / DH response induced by peptide; format: in vivo; conditions: Lewis rats
Source text: Immunogenicity of peptides useful in the present invention can be screened by well-known methods, such as use of a DH response in an animal. In such a response, an animal is "sensitized" by injection of an appropriate dose of an antigen, typically subcutaneously (SC), frequently with an adjuvant, such as complete Freund's adjuvant (CFA). Generally about 5-15 days later, the response is "elicited" by challenging the animal, typically intradermally (ID), with an appropriate dose of the antigen, typically in saline or other buffer. The response is assessed 24-48 hours later. […]
The desired peptides, with sequences determined as described above, are prepared using standard synthesis techniques including solution and solid phase sequential amino acid conjugation and recombinant production in prokaryotic or eukaryotic hosts. Verification that the peptide prepared is immunogenic can easily be determined using a DH reaction in an animal (e.g., mouse or rat), as described above. […] The ear swelling response, measured 24 or 48 hours after challenge, serves as a simple and reliable measure of the presence of T cell-mediated immunity to the peptide.

[2] = system: EAE; assay: Prevention of EAE by immunization with TCR peptide (Example VI); format: in vivo, Lewis rats; conditions: Lewis rats
Source text: EAE is a well-recognized rat model of the human autoimmune disease, multiple sclerosis. […] In this model, the disease is induced by injecting the subject rat with an encephalitogenic form of myelin basic protein, such as, for example, guinea pig basic protein (GPBP) or a synthetic peptide that corresponds to residues 72-89 of GPBP (GPBP(72-89)). Injection of either of these peptides in complete Freund's adjuvant (CFA) induces encephalitogenic T cell clones that utilize preferentially the rat homologs of mouse TCR Vα2 and Vβ8 genes (Chou, Y. K., et al., J. Neurosci. Res. 22:181-187 (1989); Burns, F. R., et al., J. Exp. Med. 169:27-39 (1989)).
^1 EAE was induced by SC challenge with 50 μg GPBP + 400 μg
^2 Rats were injected SC with either: (1) 100 μg of the TCR peptid
^3 Values represent the mean of the maximum severity of EAE. 0, no

[3] = system: lymph node cells and Vβ8-44-54 selected T cell line

## KQNNNHNNMYWYRQDMG [Vβ8 (25-41)]
[1]
  induction of T cell immunity: does not induce T cell immunity
[2]
  protection from EAE: does not protect Lewis rats from EAE
[3]
  Response of Lymph Node Cells: 14 ± 0
  Response of T Cell Line: 6 ± 1
